Test results from patent publication US8697391B2, “Method of determining cell number or viability using hydroxyethyldisulfide” (priority 2009, dated 2014).

Assays:
[1] = tested on: live cells; test: Toxicity of HEDS to live cells; assay type: cell-based; details: live cells reducing HEDS to mercaptoethanol
Source text: In a particular embodiment, the assay of the instant invention use hydroxyethyldisulfide (HEDS), a unique non-toxic disulfide, to measure glucose dependent metabolic activity of live cells in vitro. The survival of cells is directly proportional to the conversion of HEDS into mercaptoethanol (ME) by metabolically active live cells. Dead cells fail to convert HEDS into mercaptoethanol. Accordingly, the assays of the instant invention generally encompass contacting cells (e.g., live cells) with HEDS and then monitoring or measuring the amount of extracellular ME. The amount of ME produced from HEDS can be measured in the extracellular medium since ME is extruded out quickly into the extracellular medium. Extracellular ME may be measured, for example, by a dithiobiznitrobenzoic acid (DTNB) assay or High Performance Liquid Chromatography/Electrochemical Detection (HPLC/EC): The cells of the assay may be any cell that produces NADPH, particularly mammalian cells and yeast. The percentage of live cells may be determined by the amount of ME produced.
The ME produced inside the cells is extruded into the extracellular medium. This conversion mediated by the antioxidant system can be measured in the extracellular medium without the need for cellular extract. HPLC electrochemical detector was used to quantify the conversion of HEDS into mercaptoethanol in mammalian cells in tissue culture. […]

[2] = tested on: human HCT116 cells
[3] = tested on: human HCT116 cells; assay type: cell-based
[4] = tested on: human cells; assay type: cell-based

Row | Compound | toxic effect on cells [1] | survival of cells (arsenite toxicity) [2] | HEDS conversion [3] | decrease of the ME peak (HEDS conversion) [4]
1 | OCCSSCCO [HEDS, hydroxyethyldisulfide] | no toxic effect on cells | – | – | –
2 | arsenite | – | concentration dependent decrease in the survival | concentration dependent decrease in HEDS conversion | ~70%
